Laboratory results reported in US8962057B2, “Methods for improving taste and oral care compositions with improved taste” (The Procter & Gamble Company, priority 2009, dated 2015).
Where two headings read alike, the source gives them in different places.

Key:
TRPV1 [1] = molecular target: T1, TRPV1 (Homo sapiens, UniProt Q8NER1); experiment: TRPV1 enhancement, enhancer added after TRPV1 activator capsaicin; type: cell-based
T1 construct: expressed in transfected cells
Description: In order to determine whether TRPV1 is activated, the intracellular calcium ion (Ca^+2) levels in TRPV1 receptors is measured. […] (human embryonic kidney) cells stably transfected with human TRPV1 are grown in 15 ml growth medium [high glucose DMEM (Dulbecco's Modification of Eagle's Medium) supplemented with 10% FBS (fetal bovine serum), 100 μg/ml Penicillin/streptomycin, 100 μg/ml G418] in a 75 Cm^2 flask for 3 days at 33° C. in a mammalian cell culture incubator set at 5% CO2. Cells are detached with addition of 10 ml of PBS (phosphate buffered saline) by hand shaking gently. Cells are transferred to a 50 ml tube and centrifuged at 850 rpm for 3 minutes to remove PBS. After centrifugation, a pellet of cells is formed in the bottom of the tube separating them from the supernatant solution. […] Fluo-4 is a fluorescent dye used for quantifying cellular Ca^2+ concentrations in the 100 nM to 1 microM range. At the end of the 30 minutes, 45 ml of assay buffer [1×HBSS (Hank's Balanced Salt Solution), 20 mM HEPES (4-(2-Hydroxyethyl)-1-piperazineethanesulfonic acid)] is added to wash cells and the resulting combination is then centrifuged at 850 rpm for 3 minutes to remove excess buffer and Fluo-4 AM calcium indicator.
[…] […] For determining the direct effect of test compounds on TRPV1, fluorescence is measured immediately after addition of each compound.

[2] = Burning sensation on the standard Scoville hotness scale
TRPV1 [3] = molecular target: T1, TRPV1; experiment: TRPV1 enhancement, TRPV1 activator VBE and enhancer added together; type: cell-based; conditions: VBE 3.5 microMolar
Description: In order to determine whether TRPV1 is activated, the intracellular calcium ion (Ca^+2) levels in TRPV1 receptors is measured. […] (human embryonic kidney) cells stably transfected with human TRPV1 are grown in 15 ml growth medium [high glucose DMEM (Dulbecco's Modification of Eagle's Medium) supplemented with 10% FBS (fetal bovine serum), 100 μg/ml Penicillin/streptomycin, 100 μg/ml G418] in a 75 Cm^2 flask for 3 days at 33° C. in a mammalian cell culture incubator set at 5% CO2. Cells are detached with addition of 10 ml of PBS (phosphate buffered saline) by hand shaking gently. Cells are transferred to a 50 ml tube and centrifuged at 850 rpm for 3 minutes to remove PBS. After centrifugation, a pellet of cells is formed in the bottom of the tube separating them from the supernatant solution. The supernatant is discarded and the cell pellet is suspended in 1 ml of fresh growth medium to which 5 μl (12.5 μg) of Fluo-4 AM (Molecular Probes, Inc.) calcium indicator is added and incubated for 30 min with gentle shaking. Fluo-4 is a fluorescent dye used for quantifying cellular Ca^2+ concentrations in the 100 nM to 1 microM range. At the end of the 30 minutes, 45 ml of assay buffer [1×HBSS (Hank's Balanced Salt Solution), 20 mM HEPES (4-(2-Hydroxyethyl)-1-piperazineethanesulfonic acid)] is added to wash cells and the resulting combination is then centrifuged at 850 rpm for 3 minutes to remove excess buffer and Fluo-4 AM calcium indicator.
The pellet cells are re-suspended in 10 ml assay buffer and 90 μl aliquots (˜50,000 cells) per well delivered to a 96-well assay plate containing 10 μl of test compounds (1 mM in assay buffer, final concentration 100 μM) or buffer control and incubated at room temperature for 30 minutes. After 30 minutes, the plate is placed into a fluorometric imaging plate reader (FLIPR^384 from Molecular Devices) and basal fluorescence recorded (excitation wave length 488 nm and emission wave length 510 nm). The FLIPR assay is an accepted method for detecting changes in intracellular calcium concentration. Then 20 μl of the molecule being tested as a TRPV1 activator is added and fluorescence recorded. For determining the direct effect of test compounds on TRPV1, fluorescence is measured immediately after addition of each compound. Additional discussion of the FLIPR method can be found in Smart et al., Characterization using FLIPR of human vanilloid VR1 receptor pharmacology, European Journal of Pharmacology 417, 51-58 (2001) and Liu et al., Development and validation of a platelet calcium flux assay using a fluorescent imaging plate reader, Analytical Biochemistry 357, 216-224 (2006).
In a separate test, the TRPV1 activator (VBE) and the enhancer are added together. […] See the chart below.

TRPV1 [4] = molecular target: T1, TRPV1; experiment: FLIPR calcium flux assay for TRPV1 activation in transfected HEK cells; type: cell-based
Description: The term “TRPV1 activator” as used herein refers to any component which at a concentration of 1 mM gives a calcium flux count of at least 1000 counts above the background level of calcium present in the cell according to the FLIPR method as discussed herein. The term “count” is defined as the change in fluorescence of the transfected cell lines due to the influx of calcium across the cell membrane, which reacts with the calcium sensitive dye present within the cells.
In order to determine whether TRPV1 is activated, the intracellular calcium ion (Ca^+2) levels in TRPV1 receptors is measured. […] (human embryonic kidney) cells stably transfected with human TRPV1 are grown in 15 ml growth medium [high glucose DMEM (Dulbecco's Modification of Eagle's Medium) supplemented with 10% FBS (fetal bovine serum), 100 μg/ml Penicillin/streptomycin, 100 μg/ml G418] in a 75 Cm^2 flask for 3 days at 33° C. in a mammalian cell culture incubator set at 5% CO2. Cells are detached with addition of 10 ml of PBS (phosphate buffered saline) by hand shaking gently. Cells are transferred to a 50 ml tube and centrifuged at 850 rpm for 3 minutes to remove PBS. […] Fluo-4 is a fluorescent dye used for quantifying cellular Ca^2+ concentrations in the 100 nM to 1 microM range. […]
The pellet cells are re-suspended in 10 ml assay buffer and 90 μl aliquots (˜50,000 cells) per well delivered to a 96-well assay plate containing 10 μl of test compounds (1 mM in assay buffer, final concentration 100 μM) or buffer control and incubated at room temperature for 30 minutes. After 30 minutes, the plate is placed into a fluorometric imaging plate reader (FLIPR^384 from Molecular Devices) and basal fluorescence recorded (excitation wave length 488 nm and emission wave length 510 nm). […] Then 20 μl of the molecule being tested as a TRPV1 activator is added and fluorescence recorded. For determining the direct effect of test compounds on TRPV1, fluorescence is measured immediately after addition of each compound. […]

[5] = Consumer Test I: panelists brush with dentifrice and rate bothersome and bad aftertaste; type: in vivo, human; conditions: in dentifrice
Description: In order to show the effect of the addition of a TRPV1 activator and/or Vanitrope on the perception of taste in an oral care composition, the following compositions are made and given to consumers to sample.
The base of the control dentifrice (i.e. everything but the flavor) is made via vacuum mixing. The flavor is added in a second step my speed mixing to complete the control. The additional compositions are then made by speed mixing into the control base the TRPV1 activator and/or vanitrope plus flavor at the stated levels. The samples are then placed in tubes and delivered to the testing facility.
At the testing facility, panelists are provided with a generic brush with 1.0 g of toothpaste. Each panelist has an individual sink, mirror, disposable cup and paper towels. They are asked to brush as they normally would at home. Before and after brushing the panelist will answer a series of questions relating to their experience with the toothpaste. The panelists are asked to comment on their experience right after brushing and then at each hour interval for three hours. The comments from the consumers are translated into numerical values for comparison. The results for the above compositions as it related to bothersome and bad aftertaste are shown below.
Also included in the above testing are combinations of TRPV1 activators and/or vanitrope. The formulations for these tests are below and the control is the same as that listed above.

[6] = both bothersome and bad aftertaste, each of hours 1-3

T1 sequence (Q8NER1 whole entry): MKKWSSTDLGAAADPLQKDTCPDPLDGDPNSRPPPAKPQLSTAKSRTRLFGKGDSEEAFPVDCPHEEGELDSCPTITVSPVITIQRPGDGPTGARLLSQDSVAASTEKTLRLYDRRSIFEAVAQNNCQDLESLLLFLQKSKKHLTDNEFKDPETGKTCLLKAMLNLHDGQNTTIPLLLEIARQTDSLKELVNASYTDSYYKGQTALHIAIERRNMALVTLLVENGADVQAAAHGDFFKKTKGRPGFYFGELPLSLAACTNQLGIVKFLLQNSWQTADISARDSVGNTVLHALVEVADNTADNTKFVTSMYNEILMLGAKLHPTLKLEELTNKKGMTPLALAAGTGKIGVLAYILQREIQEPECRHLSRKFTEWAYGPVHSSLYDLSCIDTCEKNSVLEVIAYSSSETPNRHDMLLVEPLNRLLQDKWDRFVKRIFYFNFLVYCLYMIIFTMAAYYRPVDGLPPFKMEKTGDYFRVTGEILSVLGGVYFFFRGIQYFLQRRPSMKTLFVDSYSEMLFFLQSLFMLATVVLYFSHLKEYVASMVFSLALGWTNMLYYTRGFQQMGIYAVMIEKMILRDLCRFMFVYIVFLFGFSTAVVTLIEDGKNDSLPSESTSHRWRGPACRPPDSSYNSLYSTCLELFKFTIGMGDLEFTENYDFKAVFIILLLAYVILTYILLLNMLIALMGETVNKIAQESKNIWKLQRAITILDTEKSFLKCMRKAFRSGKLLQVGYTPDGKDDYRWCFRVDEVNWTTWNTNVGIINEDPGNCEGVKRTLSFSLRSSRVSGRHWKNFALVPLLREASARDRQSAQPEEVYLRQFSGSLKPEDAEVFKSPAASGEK

With CC(C)=CCCC(C)C=O (centres unmarked) [2,6-Dimethyl-5-Heptenal] the “% Enhancement” value (TRPV1 [1]) was 17.5%.
In the case of CCCCCCC(C)=O [2-Octanone], the “% Enhancement” value (TRPV1 [1]) was 19.87%.
In the case of CCCCC[C@H](O)CC(=O)CCc1ccc(O)c(OC)c1 [6-Gingerol], the “'Hotness' (as log Scoville Units)” value ([2]; burning sensation) was 4.9 log Scoville Units.
In the case of CCCCC/C=C/C(=O)CCc1ccc(O)c(OC)c1 [6-Shoagol], the “'Hotness' (as log Scoville Units)” value ([2]; burning sensation) was 5.1 log Scoville Units.
In the case of C=CCS[S+]([O-])CC=C (centres unmarked) [Allicin], the “'Hotness' (as log Scoville Units)” value ([2]; burning sensation) was 4.0 log Scoville Units.
For CC(=O)OC(C)(C)Cc1ccccc1 [Alpha, Alpha Dimethylphenethyl Acetate], the “Percent Enhancement when combined with 3.5 microMolar VBE” value (from here on “Percent Enhancement when combined”) (TRPV1 [3]; enhancer level 50 microMolar) was 300%, the “Percent Enhancement when combined” value (TRPV1 [3]; enhancer level 100 microMolar) was 310% and the “Percent Enhancement when combined” value (TRPV1 [3]; enhancer level 200 microMolar) was 410%. The “Percent Enhancement when combined” value (TRPV1 [3]; enhancer level 1000 microMolar) was 420% and the “% Enhancement” value (TRPV1 [1]) was 14.64%.
For C/C=C\C(=O)C1C(C)=CCCC1(C)C (stereo not drawn) [Alpha-Damascone], the “% Enhancement” value (TRPV1 [1]) was 28.1%.
With CC(=O)/C=C/C1C(C)=CCCC1(C)C (stereo not drawn) [Alpha-Ionone] the “% Enhancement” value (TRPV1 [1]) was 18.84%.
With COc1cc(CNC(=O)CCCC/C=C/C(C)C)ccc1O [Capsaicin, reference compound] the “activation level (calcium flux)” value (TRPV1 [4]; concentration of 300 nM) was “about 14127.16 calcium ions” and the “'Hotness' (as log Scoville Units)” value ([2]; burning sensation) was 7.2 log Scoville Units.
For O=Cc1ccco1 [Furfural], the “% Enhancement” value (TRPV1 [1]) was 19.29%.
With CCCC(=O)OC/C=C(\C)CCC=C(C)C [Geranyl Butyrate] the “% Enhancement” value (TRPV1 [1]) was 23.46%.
With CCCCCCCO [Heptyl Alcohol] the “% Enhancement” value (TRPV1 [1]) was 10.16%.
In the case of COc1cc(CNC(=O)CCCCC/C=C/C(C)C)ccc1O [HomoCapsaicin], the “'Hotness' (as log Scoville Units)” value [2] was 6.9 log Scoville Units.
For COc1cc(CNC(=O)CCCCCCCC(C)C)ccc1O [HomodihydroCapsaicin], the “'Hotness' (as log Scoville Units)” value [2] was 6.9 log Scoville Units.
In the case of C=C(OCC)C1C(C)(C)CC(=O)CC1(C)C [Kephalis], the “% Enhancement” value (TRPV1 [1]) was 13.74%.
For COc1cc(CNC(=O)CCCCCC(C)C)ccc1O [NorhydroCapsaicin], the “'Hotness' (as log Scoville Units)” value [2] was 7.0 log Scoville Units.
For COC(Cc1ccccc1)OC [Phenylacetaldehyde Dimethyl Acetal], the “% Enhancement” value (TRPV1 [1]) was 14.07%.
For O=P([O-])([O-])OP(=O)([O-])[O-].[Na+].[Na+].[Na+].[Na+] [Tetrasodium Pyrophosphate], the “% Enhancement” value (TRPV1 [1]) was 15.62%.
In the case of CCC/C=C/COC(C)=O [Trans-2-Hexenyl Acetate], the “% Enhancement” value (TRPV1 [1]) was 10.62%.
For CCCCOCc1ccc(O)c(OC)c1 [Vanillyl Butyl Ether], the taste versus control [5, 6] was “improved taste over the control”, the “activation level (calcium flux)” value (TRPV1 [4]; concentration of 1 mM) was “approximately 14942.84 calcium ions” and the “'Hotness' (as log Scoville Units)” value ([2]; burning sensation) was 5.7 log Scoville Units.
In the case of COc1cc(CCC(C)=O)ccc1O [Zingerone], the taste versus control [5, 6] was “improved taste over the control” and the “'Hotness' (as log Scoville Units)” value ([2]; burning sensation) was under 4.0 log Scoville Units.
For C=C(C)C1CC=C(C)C(OC(C)=O)C1 (centres unmarked) [carvyl acetate], the “% Enhancement” value (TRPV1 [1]) was 12.83%.
In the case of C/C=C/C(=O)C1C(C)C=CCC1(C)C (centres unmarked) [delta-damascone], the “% Enhancement” value (TRPV1 [1]) was 28.53%.
For C/C=C/c1ccc(OCC)c(O)c1 [vanitrope], the taste versus control ([5]; hours 1-3 for bothersome and hours 1-2 for bad aftertaste) was “taste improvement” and the “direct activation of TRPV1 (TRPV1 activator or not)” value (TRPV1 [4]) was “not considered to be a TRPV1 activator”.
In the case of Farnesene, the “Percent Enhancement when combined” value (TRPV1 [3]; enhancer level 50 microMolar) was 25%, the “Percent Enhancement when combined” value (TRPV1 [3]; enhancer level 100 microMolar) was 100% and the “Percent Enhancement when combined” value (TRPV1 [3]; enhancer level 200 microMolar) was 175%. The “Percent Enhancement when combined” value (TRPV1 [3]; enhancer level 1000 microMolar) was 400% and the “% Enhancement” value (TRPV1 [1]) was 12.33%.
